Laboratory results as given in patent US11072598B2, “Somatostatin modulators and uses thereof” (CRINETICS PHARMACEUTICALS, INC., priority 2017, dated 2021).

target: T1, human somatostatin receptor subtype 2 (Homo sapiens, UniProt P30874); assay: cAMP functional assay for SSTR2 agonists; type: cell-based; details: inhibition of cAMP activities via human SST2 receptor (SSTR2), CHO-K1 cells; read-out: EC50
T1 construct: expressed in transfected cells
Method in brief: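 CHO-K1 cells stably expressing human SSTR2 were treated for 20 min at 37 °C with compound plus NKH477 (added as 1.6 μM) in HBSS with IBMX. Intracellular cAMP was measured by HTRF against a standard curve. EC50 values came from concentration-response curves.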

T1 sequence (P30874 whole entry): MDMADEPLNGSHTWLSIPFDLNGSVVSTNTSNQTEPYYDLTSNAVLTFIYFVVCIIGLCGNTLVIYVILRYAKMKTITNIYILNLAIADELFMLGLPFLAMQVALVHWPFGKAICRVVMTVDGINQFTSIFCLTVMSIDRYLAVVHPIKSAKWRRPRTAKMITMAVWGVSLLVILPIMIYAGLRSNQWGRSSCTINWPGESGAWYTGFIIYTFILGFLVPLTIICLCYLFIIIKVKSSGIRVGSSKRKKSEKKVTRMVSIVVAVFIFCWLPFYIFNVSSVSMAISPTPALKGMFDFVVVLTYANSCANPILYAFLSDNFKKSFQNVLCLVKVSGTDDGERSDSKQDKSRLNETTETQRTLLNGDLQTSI

Question: How did the EC50 turn out when Cc1cc(F)cc(-c2cnc(N)c(-c3nc4cc(OC5COC5)ccc4[nH]3)c2N2CCC(N)CC2)c1 [Compound 1-16, 4-(4-aminopiperidin-1-yl)-5-(3-fluoro-5-methylphenyl)-3-[5-(oxetan-3-yloxy)-1H-1,3-benzodiazol-2-yl]pyridin-2-amine] was run?
Answer: The EC50 was < 10 nM.

Question: For Cc1cc(F)cc(-c2cnc(N(C)C)c(-c3nc4cc(F)cc(F)c4[nH]3)c2N2CCC(N)CC2)c1 [Compound 4-5, 4-(4-aminopiperidin-1-yl)-3-(5,7-difluoro-1H-1,3-benzodiazol-2-yl)-5-(3-fluoro-5-methylphenyl)-N,N-dimethylpyridin-2-amine], which EC50 is on record?
Answer: The EC50 was < 10 nM.

Question: Which EC50 does the source give for CNC1CCN(c2c(-c3cc(C)cc(F)c3)cnc(N)c2-c2nc3cc(C#N)cc(F)c3[nH]2)CC1 [Compound 4-3, 2-[2-amino-5-(3-fluoro-5-methylphenyl)-4-[4-(methylamino)piperidin-1-yl]pyridin-3-yl]-7-fluoro-1H-1,3-benzodiazole-5-carbonitrile] here?
Answer: The EC50 was < 10 nM.

Question: Cc1cc(F)cc(-c2cnc(O)c(-c3nc4cc(Cl)ccc4[nH]3)c2N2CCC(N)CC2)c1 [Compound 2-4, 4-(4-aminopiperidin-1-yl)-3-(5-chloro-1H-1,3-benzodiazol-2-yl)-5-(3-fluoro-5-methylphenyl)pyridin-2-ol] was tested. Which EC50 did it give?
Answer: Its EC50 is < 10 nM.

Question: For N#Cc1cc(F)cc(-c2cnc(N)c(-c3nc4cc(Cl)ccc4[nH]3)c2N2CCC(N)CC2)c1 [Compound 1-32, 3-[6-amino-4-(4-aminopiperidin-1-yl)-5-(5-chloro-1H-1,3-benzodiazol-2-yl)pyridin-3-yl]-5-fluorobenzonitrile], which EC50 is on record?
Answer: Its EC50 is < 10 nM.

Question: Cc1cc(F)cc(-c2cnc(N)c(-c3nc4cccc(Cl)c4[nH]3)c2N2CCC(N)CC2)c1 [Compound 1-73, 4-(4-aminopiperidin-1-yl)-3-(7-chloro-1H-1,3-benzodiazol-2-yl)-5-(3-fluoro-5-methylphenyl)pyridin-2-amine] was tested. Which EC50 did it give?
Answer: The EC50 was < 10 nM.

Question: Cc1cc(F)cc(-c2cnnc(-c3nc4cc(C#N)ccc4[nH]3)c2N2CCC(N)CC2)c1 [Compound 3-22, 2-[4-(4-aminopiperidin-1-yl)-5-(3-fluoro-5-methylphenyl)pyridazin-3-yl]-1H-1,3-benzodiazole-5-carbonitrile] was tested. Which EC50 did it give?
Answer: Its EC50 is < 10 nM.

Question: How did the EC50 turn out when Cc1cc(F)cc(-c2cnc(N3CCNCC3)c(-c3nc4cc(Cl)ccc4[nH]3)c2N2CCC(N)CC2)c1 [Compound 4-11, 1-[3-(5-chloro-1H-1,3-benzodiazol-2-yl)-5-(3-fluoro-5-methylphenyl)-2-(piperazin-1-yl)pyridin-4-yl]piperidin-4-amine] was run?
Answer: Its EC50 is < 10 nM.

Question: Which EC50 does the source give for COc1cc(F)cc2nc(-c3c(N)ncc(-c4cccc(C)c4)c3N3CCC(N)CC3)[nH]c12 [Compound 1-93, 4-(4-aminopiperidin-1-yl)-3-(5-fluoro-7-methoxy-1H-1,3-benzodiazol-2-yl)-5-(3-methylphenyl)pyridin-2-amine] here?
Answer: The EC50 was < 10 nM.

Question: With Cc1cc(Cl)cc(-c2cnc(N)c(C=NO)c2N2CCC(N)CC2)c1 [Compound 1-39, 4-(4-aminopiperidin-1-yl)-5-(3-chloro-5-methylphenyl)-3-[(hydroxyimino)methyl]pyridin-2-amine] as the compound, how does the EC50 read?
Answer: The EC50 was > 100 nM.

Question: With Cc1cc(F)cc(-c2cnnc(-c3cc4c(Cl)cccc4[nH]3)c2N2CCC(N)CC2)c1 [Compound 3-6, 1-[3-(4-chloro-1H-indol-2-yl)-5-(3-fluoro-5-methylphenyl)pyridazin-4-yl]piperidin-4-amine] as the compound, how does the EC50 read?
Answer: The EC50 was < 10 nM.

Question: For COc1ncc(-c2cc(F)cc(F)c2)c(N2CCC(N)CC2)c1-c1nc2cc(Cl)ccc2[nH]1 [Compound 2-14, 1-[3-(5-chloro-1H-1,3-benzodiazol-2-yl)-5-(3,5-difluorophenyl)-2-methoxypyridin-4-yl]piperidin-4-amine], which EC50 is on record?
Answer: The EC50 was 10 to 100 nM.

Question: With Cc1cc(F)cc(-c2cnnc(-c3[nH]c4cc(C#N)ccc4c3Cl)c2N2CCC(N)CC2)c1 [Compound 3-24, 2-[4-(4-aminopiperidin-1-yl)-5-(3-fluoro-5-methylphenyl)pyridazin-3-yl]-3-chloro-1H-indole-6-carbonitrile] as the compound, how does the EC50 read?
Answer: The EC50 was < 10 nM.

Question: Cc1cc(F)cc(-c2cnc(N)c(-c3nc4ccc(F)c(F)c4[nH]3)c2N2CCC(N)CC2)c1 [Compound 1-15, 4-(4-aminopiperidin-1-yl)-3-(6,7-difluoro-1H-1,3-benzodiazol-2-yl)-5-(3-fluoro-5-methylphenyl)pyridin-2-amineine] was tested. Which EC50 did it give?
Answer: The EC50 was < 10 nM.

Question: Which EC50 does the source give for COc1cc(F)cc2[nH]c(-c3c(N)ncc(-c4cc(C)cc(C)c4)c3N3CCC(N)CC3)nc12 [Compound 1-83, 4-(4-aminopiperidin-1-yl)-5-(3,5-dimethylphenyl)-3-(6-fluoro-4-methoxy-1H-1,3-benzodiazol-2-yl)pyridin-2-amine] here?
Answer: The EC50 was < 10 nM.

Question: How did the EC50 turn out when COC(=O)Nc1cccc2nc(-c3c(N)ncc(-c4cc(C)cc(F)c4)c3N3CCC(N)CC3)[nH]c12 [Compound 1-27, methyl N-{2-[2-amino-4-(4-aminopiperidin-1-yl)-5-(3-fluoro-5-methylphenyl)pyridin-3-yl]-1H-1,3-benzodiazol-7-yl}carbamate] was run?
Answer: Its EC50 is < 10 nM.

Question: With COc1ncc(-c2cc(C)cc(F)c2)c(N2CCC(N)CC2)c1-c1nc2cc(Cl)ncc2[nH]1 [Compound 2-9] as the compound, how does the EC50 read?
Answer: Its EC50 is < 10 nM.

Question: For COc1ncc(-c2cc(C)cc(F)c2)c(N2CCC(N)CC2)c1-c1nc2nc(Cl)ccc2[nH]1 [Compound 2-13, 1-(3-{5-chloro-1H-imidazo[4,5-b]pyridin-2-yl}-5-(3-fluoro-5-methylphenyl)-2-methoxypyridin-4-yl)piperidin-4-amine], which EC50 is on record?
Answer: Its EC50 is < 10 nM.

Question: COc1cc(C)cc(-c2cnc(N)c(-c3nc4cc(F)cc(F)c4[nH]3)c2N2CCC(N)CC2)c1 [Compound 1-80, 4-(4-aminopiperidin-1-yl)-3-(5,7-difluoro-1H-1,3-benzodiazol-2-yl)-5-(3-methoxy-5-methylphenyl)pyridin-2-amine] was tested. Which EC50 did it give?
Answer: Its EC50 is < 10 nM.

Question: For Cc1cc(C)cc(-c2cnc(N)c(-c3nc4cc(Cl)ccc4[nH]3)c2N2CC[C@@H](N)[C@H](C#N)C2)c1 (relative stereo) [Compound 1-41, trans-4-amino-1-[2-amino-3-(5-chloro-1H-1,3-benzodiazol-2-yl)-5-(3,5-dimethylphenyl)pyridin-4-yl]piperidine-3-carbonitrile], which EC50 is on record?
Answer: The EC50 was < 10 nM.

Question: For Cc1cc(Cl)cc(-c2cnc(N)c(C=NOC(C)C)c2N2CCC(N)CC2)c1 [Compound 1-37], which EC50 is on record?
Answer: Its EC50 is < 10 nM.

Question: How did the EC50 turn out when CONC(=O)c1ccc2cc(-c3nncc(-c4cc(C)cc(F)c4)c3N3CCC(N)CC3)[nH]c2c1 [Compound 3-20, 2-[4-(4-aminopiperidin-1-yl)-5-(3-fluoro-5-methylphenyl)pyridazin-3-yl]-N-methoxy-1H-indole-6-carboxamide] was run?
Answer: The EC50 was 10 to 100 nM.

Question: For COc1cc(F)cc2nc(-c3c(N4CC(F)C4)ncc(-c4cccc(F)c4)c3N3CCC(N)CC3)[nH]c12 [Compound 4-9, 1-[3-(5-fluoro-7-methoxy-1H-1,3-benzodiazol-2-yl)-2-(3-fluoroazetidin-1-yl)-5-(3-fluorophenyl)pyridin-4-yl]piperidin-4-amine], which EC50 is on record?
Answer: Its EC50 is < 10 nM.

Question: Cc1cc(C)cc(-c2cnc(N)c(-c3nc4cc(F)cc(F)c4[nH]3)c2N2CCC(N)CC2)c1 [Compound 1-78, 4-(4-aminopiperidin-1-yl)-3-(5,7-difluoro-1H-1,3-benzodiazol-2-yl)-5-(3,5-dimethylphenyl)pyridin-2-amine] was tested. Which EC50 did it give?
Answer: The EC50 was < 10 nM.

Question: With Cc1cc(F)cc(-c2cnc(N)c(-c3nc4cc(S(C)(=O)=O)ccc4[nH]3)c2N2CCC(N)CC2)c1 [Compound 1-53, 4-(4-aminopiperidin-1-yl)-5-(3-fluoro-5-methylphenyl)-3-(5-methanesulfonyl-1H-1,3-benzodiazol-2-yl)pyridin-2-amine] as the compound, how does the EC50 read?
Answer: Its EC50 is < 10 nM.

Question: Cc1cc(F)cc(-c2cnnc(-c3nc4cc(Cl)ccc4[nH]3)c2N2CCC(N)CC2)c1 [Compound 3-3, 1-[3-(5-chloro-1H-1,3-benzodiazol-2-yl)-5-(3-fluoro-5-methylphenyl)pyridazin-4-yl]piperidin-4-amine] was tested. Which EC50 did it give?
Answer: The EC50 was < 10 nM.

Question: Which EC50 does the source give for N#CCOc1cc(F)c2[nH]c(-c3c(N)ncc(-c4cc(F)cc(Cl)c4)c3N3CCC(N)CC3)nc2c1 [Compound 1-88, 2-({2-[2-amino-4-(4-aminopiperidin-1-yl)-5-(3-chloro-5-fluorophenyl)pyridin-3-yl]-7-fluoro-1H-1,3-benzodiazol-5-yl}oxy)acetonitrile] here?
Answer: The EC50 was < 10 nM.

Question: How did the EC50 turn out when “4-(4-aminopiperidin-1-yl)-5-(3-fluoro-5-methylphenyl)-3-{5-[(hydroxyimino)methyl]-1H-1,3-benzodiazol-2-yl}pyridin-2-amine [Compound 1-47]” was run?
Answer: Its EC50 is < 10 nM.

Question: How did the EC50 turn out when Cc1cc(F)cc(-c2cnnc(-c3[nH]c4cc(Cl)ccc4c3Cl)c2N2CCC(N)CC2)c1 [Compound 3-14, 1-[3-(3,6-dichloro-1H-indol-2-yl)-5-(3-fluoro-5-methylphenyl)pyridazin-4-yl]piperidin-4-amine] was run?
Answer: Its EC50 is < 10 nM.

Question: For Cc1cc(F)cc(-c2cnnc(-c3cc4cccc(Cl)c4[nH]3)c2N2CCC(N)CC2)c1 [Compound 3-7, 1-[3-(7-chloro-1H-indol-2-yl)-5-(3-fluoro-5-methylphenyl)pyridazin-4-yl]piperidin-4-amine], which EC50 is on record?
Answer: The EC50 was < 10 nM.

Question: COc1cc(F)cc2nc(-c3c(N)ncc(-c4ccc(F)c(C)c4)c3N3CCC(N)CC3)[nH]c12 [Compound 1-91, 4-(4-aminopiperidin-1-yl)-5-(4-fluoro-3-methylphenyl)-3-(5-fluoro-7-methoxy-1H-1,3-benzodiazol-2-yl)pyridin-2-amine] was tested. Which EC50 did it give?
Answer: The EC50 was < 10 nM.

Question: CONC(=O)c1ccc2[nH]c(-c3c(N)ncc(-c4cc(C)cc(F)c4)c3N3CCC(N)CC3)nc2c1 [Compound 1-23, 2-[2-amino-4-(4-aminopiperidin-1-yl)-5-(3-fluoro-5-methylphenyl)pyridin-3-yl]-N-methoxy-1H-1,3-benzodiazole-5-carboxamide] was tested. Which EC50 did it give?
Answer: The EC50 was 10 to 100 nM.

Question: Which EC50 does the source give for COC(=O)Nc1ccc2[nH]c(-c3c(N)ncc(-c4cc(C)cc(F)c4)c3N3CCC(N)CC3)nc2c1 [Compound 1-45, methyl N-{2-[2-amino-4-(4-aminopiperidin-1-yl)-5-(3-fluoro-5-methylphenyl)pyridin-3-yl]-1H-1,3-benzodiazol-5-yl}carbamate] here?
Answer: Its EC50 is < 10 nM.
